Series [1] can be described thus: Kinetic solubility at pH 1 and 7. In kind it is physicochemical. The settings on record: 23 °C, kinetic from dmso stock, 1.0% DMSO. How it is done:
Kinetic Solubility at pH 1 and 7
100-fold dilutions of each compound as DMSO stock solution were prepared by combining 3 μL of DMSO stock with 297 μL of the appropriate media in a Millipore solubility filter plate with 0.45 μM polycarbonate filter membrane using Hamilton Starlet liquid handling. The final DMSO Concentration is 1.0% and maximum theoretical compound concentration is […] (assuming stock concentration of 10 mM). The filter plate was sealed. Following 24-hour incubation at ambient temperature (22.2-23.6° C.), the samples were vacuum filtered, and the filtrates were collected in a 96 well polypropylene plate for analysis. The collection plate was sealed for analysis. Filtrates were injected into the nitrogen detector for quantification. The equimolar nitrogen response of the detector is calibrated using standards which span the dynamic range of the instrument from 0.08 to 4500 μg/ml nitrogen. The filtrates were quantified with respect to this calibration curve. The calculated solubility values are corrected for background nitrogen present in the DMSO, and the media used to prepare the samples

The nature of series [2]: In vivo rat pharmacokinetics. The settings on record: Wister Han rats. As to the method: In Vivo Rat Pharmacokinetics Experiments
In vivo Wister Han rat pharmacokinetic experiments of compound Comparator C and Example 4 were assessed as follows.
Compound Comparator C was dosed as a 100 mg/kg suspension to Wister Han rats (N=3) using the following formulation:30% captisol, 5% soluplus, 65% pH 2 water. Compound 1170997 was dosed separately as a 100 mg-eq/kg (123 mg/kg) solution to Wister Han rats (N=3) using the following formulation: 0.5% Methocel E4M Premium, 0.1% Tween-80, 99.4% Water. Samples were assessed for the presence of Comparator C.
Comparator C and Example 4. […] As is shown in Table 4, the AUC 0-24 h measured for Comparator C in plasma was higher after dosing with Example 4 than the value measured after dosing with an equivalent dose of Comparator C.

A short description of series [3]: Assay buffer stability (Tris buffer without alkaline phosphatase). The settings on record: 2 μM substrate, Tris buffer pH 7.8 without alkaline phosphatase. The class given is physicochemical. As to the method:
(§1) Alkaline phosphatase stability assays were carried out using purified Bovine intestinal alkaline phosphatase. Duplicate sets were performed with a TECAN liquid handler. Assay substrate concentrations were 2 μM. Purified Bovine intestinal alkaline phosphatase was acquired through MilliPore Sigma as a lyophilized powder. Reaction mixtures were prepared by the addition of 2 μL compound (400 μM stock solution in DMSO) into wells of a 96-well plate containing […] Tris buffer (100 mM, pH 7.8, 1 mM MgCl2 and 1 mM ZnCl2) with and without 100 ng/mL purified Bovine intestinal alkaline phosphatase. Samples were assessed at time points of 3, 30, 60, 120, 180 and 240 minutes. At each time point, 25 μL of the reaction mixtures were added into a 96-well plate containing 225 μL of quench solution (99% Acetonitrile with 1% Formic Acid and 100 nM Labetalol as internal standard). The plates containing the quench samples were then vortexed at 1100 RPM for 10 minutes and centrifuged at 4500 RPM for 20 minutes. 150 μL of the resulting supernatant was transferred into a 96-well plate containing 150 μL of water and vortexed at 1100 RPM for 3 minutes to mix.
(§2) Samples were analyzed with a Leap HTC Autosampler and a Dionex UltiMate 3000 HPLC system interfaced to a Thermo Q-Exactive mass spectrometer operating in positive ion electrospray mode. A Thermo Scientific Hypersil GOLD (1.9 μM particle size, 50×2.1 mm) HPLC column was used and mobile phase was pumped at 0.5 mL/min. Elution of analytes was achieved by a series of linear gradients of acetonitrile in water containing 0.1% (v/v) formic acid. Quantification was by analyte/internal standard peak area ratio (PAR).

Series [4] in a line: Thermodynamic solubility in FaSSIF and FeSSIF. In kind it is physicochemical. The conditions noted are these: 20 hours, ambient temperature. How it is done: Thermodynamic Solubility in FASSIF and FESSIF.
The aqueous solubility of compounds over a time of 20 hours was assessed. Solubility was determined at ambient temperature in buffered fasted-state simulated intestinal fluid (FaSSIF, pH 6.5) and buffered fed-state simulated intestinal fluid (FeSSIF, pH 5.0) prepared in-house using BioRelevant Simulated Intestinal Fluid (SIF) powder. Solids were added to FaSSIF or FeSSIF in 1.5-mL Eppendorf tubes, vortexed for 1 minute, then agitated for 20 hours in an Eppendorf ThermoMixer C. To determine concentration in solution, the suspensions were centrifuged for 10 min at 14,800 rpm and supernatants were diluted to a volume of 1 mL with 1:1 v/v acetonitrile:water. All diluted supernatants were analyzed by UPLC using a Waters Acquity UPLC with a PDA UV detector.

Series [5] has as its target T1, alkaline phosphatase (intestinal) (Bos taurus, UniProt P19111).
T1 construct: purchased MilliPore Sigma
As to the kind of experiment: Alkaline phosphatase stability assay. The class given is in vitro ADME. The settings on record: 2 μM substrate, 100 ng/mL purified Bovine intestinal alkaline phosphatase, Tris buffer pH 7.8; read-out: ALP half life. How it is done: Alkaline Phosphatase Stability Assay
as §1, §2

The structures appear in SMILES notation. Where a name gives a salt, the structure may show the parent alone. Read-outs that look alike come from different tables or passages of the source.

T1 sequence (P19111 20-506 limits assumed): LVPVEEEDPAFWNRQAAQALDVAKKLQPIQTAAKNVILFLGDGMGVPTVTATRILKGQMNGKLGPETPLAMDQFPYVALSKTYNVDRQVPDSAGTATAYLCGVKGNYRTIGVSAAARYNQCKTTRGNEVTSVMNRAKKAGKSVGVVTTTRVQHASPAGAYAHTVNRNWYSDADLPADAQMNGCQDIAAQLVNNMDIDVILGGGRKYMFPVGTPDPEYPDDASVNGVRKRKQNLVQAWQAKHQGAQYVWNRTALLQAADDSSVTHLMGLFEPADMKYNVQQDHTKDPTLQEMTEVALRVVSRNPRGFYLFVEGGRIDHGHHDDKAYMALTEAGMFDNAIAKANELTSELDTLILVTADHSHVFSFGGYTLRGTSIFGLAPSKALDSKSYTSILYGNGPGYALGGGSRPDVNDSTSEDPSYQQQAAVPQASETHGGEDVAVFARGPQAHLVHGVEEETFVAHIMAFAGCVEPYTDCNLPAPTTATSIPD

As for `O=c1[nH]c(=O)n(COP(=O)(O)O)cc1-c1cc([C@H]2C[C@@H]2c2ccc3cnn(CC(F)(F)F)c3c2)c2ncc(F)n2n1` [Example 4, (5-(3-fluoro-8-((1S,2S)-2-(1-(2,2,2-trifluoroethyl)-1H-indazol-6-yl)cyclopropyl)imidazo[1,2-b]pyridazin-6-yl)-2,4-dioxo-3,4-dihydropyrimidin-1(2H)-yl)methyl dihydrogen phosphate], the kinetic solubility (in general, the concentration staying in solution when a stock, usually in DMSO, is diluted into the medium) at 24 h in series [1] (aqueous buffer, pH 7, 24-hour incubation at ambient temperature, read-out: Kinetic Solubility pH 7) was over 100 µM; in series [1] (simulated gastric fluid, pH 1, 24-hour incubation at ambient temperature, read-out: Kinetic Solubility pH 1), 96 µM. In addition, the “AUC 0-24 h measured for Comparator C in plasma, compared with dosing an equivalent dose of Comparator C” value in series [2] (100 mg-eq/kg) is on record as “higher”. The half-life (usually the time in which the quantity being followed falls by half) at 2 µM was over 1580 min in series [3] and 4 min in series [5]. For the same compound, in series [4] (fasted-state simulated intestinal fluid pH 6.5), the “FaSSIF (pH 6.5)” value is reported as 1100 ug/mL. Besides, the “FeSSIF (pH 5.0)” value in series [4] (fed-state simulated intestinal fluid pH 5.0) is on record as over 5400 ug/mL.

Turning to `O=c1[nH]cc(-c2cc([C@H]3C[C@@H]3c3ccc4cnn(CC(F)(F)F)c4c3)c3ncc(F)n3n2)c(=O)[nH]1` [Comparator C HCl salt, reference compound], the AUC(0-t) in series [2] (rat, 100 mg/kg suspension, Comparator C measured in plasma, read-out: Comparator C AUC 0-24 h) is 11.2 µM·h.

The record behind these values is patent US11919869B2, “CD73 compounds” (Gilead Sciences, Inc., priority 2021, dated 2024).
